Data reported in patent publication US20250295646A1, “METHODS OF USE OF T-TYPE CALCIUM CHANNEL MODULATORS” (Praxis Precision Medicines, Inc., priority 2022, published 2025).

Test system: adult patients with essential tremor
Experiment: Example 16: accelerometer-based (Kinesia ONE) TETRAS upper limb score
Format: in vivo, human
Excerpt: Accelerometer (Kinesia ONE) TETRAS assessments were generally consistent with those conducted at the clinic. Accelerometer upper limb score values are summarized for Part A, the open-label titration phase of Part B, and the randomized withdrawal phase of Part B in Table 37, Table 38, and Table 39, respectively

[1] = Part B Open-Label Titration (N = 17), Day 42, Post - dose
[2] = Part B Open-Label Titration (N = 17), Day 42, Pre - dose
[3] = Part B Open-Label Titration, pre-dose baseline upper limb scores ≥10 (N = 12), Day 1, Post - dose
[4] = Part B Open-Label Titration, pre-dose baseline upper limb scores ≥10 (N = 12), Day 7
[5] = Part B Open-Label Titration, pre-dose baseline upper limb scores ≥10 (N = 12), Day 21
[6] = Part B Open-Label Titration, pre-dose baseline upper limb scores ≥10 (N = 12), Day 42, Post - dose
[7] = Part B Open-Label Titration, pre-dose baseline upper limb scores ≥10 (N = 12), Day 42, Pre - dose
[8] = Part B Randomized Withdrawal, Formula (I) group (N = 6), Day 1, Post - dose
[9] = Part B Randomized Withdrawal, Formula (I) group (N = 6), Day 7
[10] = Part B Randomized Withdrawal, Formula (I) group (N = 6), Day 21
[11] = Part B Randomized Withdrawal, Formula (I) group (N = 6), Day 42, Post - dose
[12] = Part B Randomized Withdrawal, Formula (I) group (N = 6), Day 42, Pre - dose
[13] = Part B Randomized Withdrawal, Formula (I) group (N = 6), Day 42 Post - dose (Randomization Baseline)
[14] = Part B Randomized Withdrawal, Formula (I) group (N = 6), Day 56
[15] = Part B Randomized Withdrawal, Formula (I) group (N = 6), Day 70
[16] = Part B Randomized Withdrawal, Day 56
[17] = Part B Randomized Withdrawal, Day 70

## CC(C)(C)NC(=O)CN1CCC(CNC(=O)c2cc(F)cc(Cl)c2)CC1 [compound of formula (I), N-((1-(2-(tert-butylamino)-2-oxoethyl)piperidin-4-yl)methyl)-3-chloro-5-fluorobenzamide]
Part B Open-Label Titration (N = 17), Day 21
  Percentage Change from Baseline in Tremor Amplitude, Median: −17.46%
[1]
  Accelerometer-Based Upper Limb Score, Change from Baseline, LS Mean (SE): −1.798 (0.4511)
  Accelerometer-Based Upper Limb Score, Change from Baseline, Mean (SD): −1.73 (2.009)
  Accelerometer-Based Upper Limb Score, Change from Baseline, Median: −2.40
  Accelerometer-Based Upper Limb Score, observed, Mean (SD): 9.44 (2.857)
  Accelerometer-Based Upper Limb Score, observed, Median: 8.60
  LS Mean Percentage Change in Tremor Amplitude: −29.2%
  Percentage Change from Baseline in Tremor Amplitude, Mean (SD): −24.06 (27.567) %
  Percentage Change from Baseline in Tremor Amplitude, Median: −36.90%
[2]
  Accelerometer-Based Upper Limb Score, Change from Baseline, LS Mean (SE): −1.766 (0.5175)
  Accelerometer-Based Upper Limb Score, Change from Baseline, Mean (SD): −1.70 (1.829)
  Accelerometer-Based Upper Limb Score, Change from Baseline, Median: −2.00
  Accelerometer-Based Upper Limb Score, observed, Mean (SD): 9.48 (3.369)
  Accelerometer-Based Upper Limb Score, observed, Median: 9.65
  LS Mean Percentage Change in Tremor Amplitude: −28.7%
  Percentage Change from Baseline in Tremor Amplitude, Mean (SD): −24.79 (26.969) %
  Percentage Change from Baseline in Tremor Amplitude, Median: −31.87%
[3]
  Accelerometer-Based Upper Limb Score, Change from Baseline, LS Mean (SE): −0.764 (0.4030)
  Accelerometer-Based Upper Limb Score, Change from Baseline, Mean (SD): −0.75 (1.696)
  Accelerometer-Based Upper Limb Score, Change from Baseline, Median: −0.93
  Accelerometer-Based Upper Limb Score, observed, Mean (SD): 11.00 (2.303)
  Accelerometer-Based Upper Limb Score, observed, Median: 10.95
  LS Mean Percentage Change in Tremor Amplitude: −13.6%
  Percentage Change from Baseline in Tremor Amplitude, Mean (SD): −11.30 (25.126) %
  Percentage Change from Baseline in Tremor Amplitude, Median: −16.10%
[4]
  Accelerometer-Based Upper Limb Score, Change from Baseline, LS Mean (SE): −1.677 (0.4345)
  Accelerometer-Based Upper Limb Score, Change from Baseline, Mean (SD): −2.03 (1.939)
  Accelerometer-Based Upper Limb Score, Change from Baseline, Median: −2.05
  Accelerometer-Based Upper Limb Score, observed, Mean (SD): 9.96 (3.151)
  Accelerometer-Based Upper Limb Score, observed, Median: 11.10
  LS Mean Percentage Change in Tremor Amplitude: −27.5%
  Percentage Change from Baseline in Tremor Amplitude, Mean (SD): −28.60 (24.257) %
  Percentage Change from Baseline in Tremor Amplitude, Median: −32.52%
[5]
  Accelerometer-Based Upper Limb Score, Change from Baseline, LS Mean (SE): −2.295 (0.6539)
  Accelerometer-Based Upper Limb Score, Change from Baseline, Mean (SD): −2.04 (2.248)
  Accelerometer-Based Upper Limb Score, Change from Baseline, Median: −1.48
  Accelerometer-Based Upper Limb Score, observed, Mean (SD): 9.91 (2.999)
  Accelerometer-Based Upper Limb Score, observed, Median: 10.98
  LS Mean Percentage Change in Tremor Amplitude: −35.6%
  Percentage Change from Baseline in Tremor Amplitude, Mean (SD): −27.37 (27.794) %
  Percentage Change from Baseline in Tremor Amplitude, Median: −24.34%
[6]
  Accelerometer-Based Upper Limb Score, Change from Baseline, LS Mean (SE): −1.818 (0.5342)
  Accelerometer-Based Upper Limb Score, Change from Baseline, Mean (SD): −1.87 (2.027)
  Accelerometer-Based Upper Limb Score, Change from Baseline, Median: −2.40
  Accelerometer-Based Upper Limb Score, observed, Mean (SD): 9.93 (2.878)
  Accelerometer-Based Upper Limb Score, observed, Median: 10.40
  LS Mean Percentage Change in Tremor Amplitude: −29.4%
  Percentage Change from Baseline in Tremor Amplitude, Mean (SD): −26.06 (27.100) %
  Percentage Change from Baseline in Tremor Amplitude, Median: −36.90%
[7]
  Accelerometer-Based Upper Limb Score, Change from Baseline, LS Mean (SE): −1.559 (0.5803)
  Accelerometer-Based Upper Limb Score, Change from Baseline, Mean (SD): −1.57 (1.914)
  Accelerometer-Based Upper Limb Score, Change from Baseline, Median: −2.00
  Accelerometer-Based Upper Limb Score, observed, Mean (SD): 10.23 (3.244)
  Accelerometer-Based Upper Limb Score, observed, Median: 11.15
  LS Mean Percentage Change in Tremor Amplitude: −25.9%
  Percentage Change from Baseline in Tremor Amplitude, Mean (SD): −22.96 (28.661) %
  Percentage Change from Baseline in Tremor Amplitude, Median: −31.87%
[8]
  Accelerometer-Based Upper Limb Score, Change from Baseline, Mean (SD): −0.08 (1.710)
  Accelerometer-Based Upper Limb Score, Change from Baseline, Median: −0.78
  Accelerometer-Based Upper Limb Score, observed, Mean (SD): 9.98 (2.321)
  Accelerometer-Based Upper Limb Score, observed, Median: 10.78
  Percentage Change from Baseline in Tremor Amplitude, Mean (SD): −2.18 (27.539) %
  Percentage Change from Baseline in Tremor Amplitude, Median: −13.59%
[9]
  Accelerometer-Based Upper Limb Score, Change from Baseline, Mean (SD): −0.79 (1.542)
  Accelerometer-Based Upper Limb Score, Change from Baseline, Median: −1.20
  Accelerometer-Based Upper Limb Score, observed, Mean (SD): 9.55 (2.774)
  Accelerometer-Based Upper Limb Score, observed, Median: 10.15
  Percentage Change from Baseline in Tremor Amplitude, Mean (SD): −12.59 (25.197) %
  Percentage Change from Baseline in Tremor Amplitude, Median: −19.95%
[10]
  Accelerometer-Based Upper Limb Score, Change from Baseline, Mean (SD): −0.56 (1.273)
  Accelerometer-Based Upper Limb Score, Change from Baseline, Median: −0.55
  Accelerometer-Based Upper Limb Score, observed, Mean (SD): 9.50 (2.760)
  Accelerometer-Based Upper Limb Score, observed, Median: 9.88
  Percentage Change from Baseline in Tremor Amplitude, Mean (SD): −8.75 (21.102) %
  Percentage Change from Baseline in Tremor Amplitude, Median: −9.68%
[11]
  Accelerometer-Based Upper Limb Score, Change from Baseline, Mean (SD): −0.68 (1.718)
  Accelerometer-Based Upper Limb Score, Change from Baseline, Median: −0.23
  Percentage Change from Baseline in Tremor Amplitude, Mean (SD): −9.46 (26.746) %
  Percentage Change from Baseline in Tremor Amplitude, Median: −3.87%
[12]
  Accelerometer-Based Upper Limb Score, Change from Baseline, Mean (SD): −0.73 (1.948)
  Accelerometer-Based Upper Limb Score, Change from Baseline, Median: −0.98
  Accelerometer-Based Upper Limb Score, observed, Mean (SD): 9.33 (2.645)
  Accelerometer-Based Upper Limb Score, observed, Median: 10.40
  Percentage Change from Baseline in Tremor Amplitude, Mean (SD): −10.75 (29.656) %
  Percentage Change from Baseline in Tremor Amplitude, Median: −17.06%
[13]
  Accelerometer-Based Upper Limb Score, observed, Mean (SD): 9.38 (2.242)
  Accelerometer-Based Upper Limb Score, observed, Median: 9.50
[14]
  Accelerometer-Based Upper Limb Score, Change from Baseline, Mean (SD): −0.55 (3.145)
  Accelerometer-Based Upper Limb Score, Change from Baseline, Median: 0.62
  Accelerometer-Based Upper Limb Score, Change from Randomization, LS Mean (SE): 0.120 (0.9528)
  Accelerometer-Based Upper Limb Score, Change from Randomization, Mean (SD): 0.13 (1.495)
  Accelerometer-Based Upper Limb Score, Change from Randomization, Median: 0.70
  Accelerometer-Based Upper Limb Score, observed, Mean (SD): 9.51 (2.810)
  Accelerometer-Based Upper Limb Score, observed, Median: 9.75
  LS Mean Percentage Change in Tremor Amplitude (from Randomization): 2.3%
  Percentage Change from Baseline in Tremor Amplitude, Mean (SD): −4.53 (43.487) %
  Percentage Change from Baseline in Tremor Amplitude, Median: 9.78%
  Percentage Change from Randomization in Tremor Amplitude, Mean (SD): 2.74 (24.404) %
  Percentage Change from Randomization in Tremor Amplitude, Median: 12.37%
[15]
  Accelerometer-Based Upper Limb Score, Change from Baseline, Mean (SD): 1.30 (2.932)
  Accelerometer-Based Upper Limb Score, Change from Baseline, Median: 0.35
  Accelerometer-Based Upper Limb Score, Change from Randomization, LS Mean (SE): 2.482 (1.0202)
  Accelerometer-Based Upper Limb Score, Change from Randomization, Mean (SD): 2.34 (2.050)
  Accelerometer-Based Upper Limb Score, Change from Randomization, Median: 1.85
  Accelerometer-Based Upper Limb Score, observed, Mean (SD): 11.33 (2.653)
  Accelerometer-Based Upper Limb Score, observed, Median: 12.40
  LS Mean Percentage Change in Tremor Amplitude (from Randomization): 37.9%
  Percentage Change from Baseline in Tremor Amplitude, Mean (SD): 14.62 (35.044) %
  Percentage Change from Baseline in Tremor Amplitude, Median: 6.50%
  Percentage Change from Randomization in Tremor Amplitude, Mean (SD): 32.71 (20.891) %
  Percentage Change from Randomization in Tremor Amplitude, Median: 29.88%
[16]
  LS Mean (SE) for Difference (Formula (I) - Placebo), change from Randomization in accelerometer-based upper limb score: −2.227 (1.4135)
  LS Mean Percentage Change Difference (Formula (I) - Placebo): −34.0%
[17]
  LS Mean (SE) for Difference (Formula (I) - Placebo), change from Randomization in accelerometer-based upper limb score: −0.356 (1.4667)
  LS Mean Percentage Change Difference (Formula (I) - Placebo): −4.1%
